13 compounds from patent US20100041920A1, “NEW SALT FORMS OF AN AMINOINDAN DERIVATIVE” (priority 2008, published 2010) can be followed below.

The conditions of series [1]: for Colour/Aspect 10 months later / Purity (HPLC) 10 months later / XRD result 10 months later: room temperature, ambient atmosphere; for Purity (HPLC) % initial / XRD result Initial: before storage.
Series [2] is described as follows: Accelerated stability studies of rasagiline salts (40° C. and 75% RH; PE and AL bags). Particulars: for XRD 1st Month / XRD 2nd Month / Purity (HPLC) 1st Month / Purity (HPLC) 2nd Month: 40° C. and 75% RH; for XRD 1st Month / Purity (HPLC) 1st Month: 1 month; for XRD 2nd Month / Purity (HPLC) 2nd Month: 2 months. Type of series: physicochemical. The procedure: Rasagiline salts were submitted to accelerated conditions (40° C. and 75% RH) in two types of bags: polyethylene (PE) and aluminium (AL) bags. The samples were characterized by HPLC, XRD, and visual inspection.

A short description of series [3]: Particle size studies of rasagiline salts (Malvern Mastersizer S). Particulars: particle size by volume, suspended in Isopar G with soybean lecithin.
A short description of series [4]: Flowability studies of rasagiline salts (bulk and tapped density, Hausner ratio). Particulars: for Flowability: flow character by Hausner ratio; for Bulk density: freely settled; for Hausner ratio: tapped bulk density divided by bulk density.
Series [5] in a line: physchem. Particulars: water. The method, then:
The mother liquors were analyzed by HPLC.

The mark [6] stands for this setting: 40° C. and 75% RH for one and two months.
Where [7] appears, read: room temperature, stirred until equilibration, HPLC.
[8] abbreviates: listed as rasagiline besylate Form I.
[9] abbreviates: listed as rasagiline succinate Form I.

Where a name gives a salt, the structure may show the parent alone. Read-outs that look alike come from different tables or passages of the source.

Consider `C#CCN[C@@H]1CCc2ccccc21.O=C(O)[C@H]1OC(O)[C@H](O)[C@@H](O)[C@@H]1O` [D-Glucuronate, rasagiline D-glucuronate], for which, in series [1], the “Colour/Aspect 10 months later” value was “brown oil”, the “Purity (HPLC) 10 months later” value amounted to 50.64%, the “XRD result 10 months later” value was “amorphous” and the “Purity (HPLC) % initial” value is 86.00%. In addition, in series [1], the “XRD result Initial” value was “amorphous” and the “stability after ten months of storage (in words)” value (shortened to “stability after ten months”) is listed as “highly stable in terms of polymorphic form”.

Take `C#CCN[C@@H]1CCc2ccccc21.O=C(O)[C@@H](O)[C@H](O)[C@H](O)[C@@H](O)C(=O)O` [Galactarate, rasagiline galactarate]: in series [1], the “Purity (HPLC) 10 months later” value is 98.81%; the “Purity (HPLC) % initial” value is given as 98.92%; the “stability after ten months” value was “stable in terms of chemical purity and of polymorphic form”.

In the case of `C#CCN[C@@H]1CCc2ccccc21.O=C(O)[C@H](O)[C@@H](O)[C@H](O)[C@H](O)CO` [Gluconate, rasagiline gluconate], in series [1], the “Colour/Aspect 10 months later” value is “brown oil”, the “Purity (HPLC) 10 months later” value is recorded as 96.36%, the “XRD result 10 months later” value is recorded as “amorphous” and the “Purity (HPLC) % initial” value is given as 98.61%. Besides, in series [1], the “XRD result Initial” value is “amorphous”.

On to `C#CCN[C@@H]1CCc2ccccc21.C#CCN[C@@H]1CCc2ccccc21.O=C(O)C(O)C(O)C(=O)O` [Hemitartrate Form I, rasagiline L-hemitartrate], for which, in series [2] (setting [6]), the “stability under accelerated stability conditions (in words)” value is “highly stable in terms of visual aspect, chemical purity and of polymorphic form”. In addition, in series [2], the “Purity (HPLC) % initial” value is 99.27% and the “XRD Initial” value was “Form I”. Further, in series [1], the “Colour/Aspect 10 months later” value is recorded as “white powder”, the “Purity (HPLC) 10 months later” value stood at 98.86%, the “XRD result 10 months later” value is “Form I” and the “Purity (HPLC) % initial” value was determined as 99.14%. Moreover, in series [1], the “XRD result Initial” value is on record as “Form I”; the “stability after ten months” value was “highly stable in terms of visual aspect, chemical purity and of polymorphic form”. For the same compound, in series [3], the “D(v, 0.1)” value was determined as 4.5 μm; the “D(v, 0.5)” value amounted to 18.3 μm; the “D(v, 0.9)” value came out at 78.8 μm. In addition, in series [4], the Tapped density came to 0.181 g/mL, the Flowability result is listed as “Passable (1.26-1.34)” and the Bulk density is listed as 0.138 g/mL. For the same compound, the Flowability entry in series [4] (listed as rasagiline L-hemitartrate Form I) is recorded as “passable”. Also, the Flowability result in series [4] (listed as rasagiline L-hemitartrate salt Form I) was “excellent”.

In series [5] (thermodynamic from solid), `C#CCN[C@@H]1CCc2ccccc21` [Hydrochloride Form II, rasagiline hydrochloride] showed a Solubility of around 400 mg/mL. Besides, the “stability under accelerated stability conditions (in words)” value in series [2] (setting [6]) is “highly stable in terms of visual aspect, chemical purity and of polymorphic form”. Besides, in series [2] (AL bag), the “XRD 1st Month” value is listed as “Form II” and the “XRD 2nd Month” value was “Form II”. For the same compound, in series [2] (PE bag), the “XRD 1st Month” value is reported as “Form II” and the “XRD 2nd Month” value is “Form II”. Also, in series [2] (aluminium (AL) bag), the “Purity (HPLC) 1st Month” value was above 99.9% and the “Purity (HPLC) 2nd Month” value was above 99.9%. Also, in series [2] (polyethylene (PE) bag), the “Purity (HPLC) 1st Month” value is recorded as above 99.9% and the “Purity (HPLC) 2nd Month” value was above 99.9%. For the same compound, in series [2], the “Purity (HPLC) % initial” value is listed as above 99.9% and the “XRD Initial” value is reported as “Form II”. Further, in series [3], the “D(v, 0.1)” value is on record as 41.7 μm; the “D(v, 0.5)” value is given as 99.6 μm; the “D(v, 0.9)” value is given as 185.2 μm. Besides, in series [4], the Tapped density is 0.673 g/mL and the Bulk density came to 0.673 g/mL. In series [4] (hydrochloride), the Flowability result is “Excellent (1.00-1.11)”. Further, the Flowability result in series [4] (listed as rasagiline hydrochloride Form II, hydrochloride) is recorded as “excellent”. Also, the Flowability entry in series [4] (listed as rasagiline hydrochloride salt Form II, hydrochloride) was “excellent”.

On to `C#CCN[C@@H]1CCc2ccccc21` [Hydrochloride, rasagiline hydrochloride], for which, in series [1], the “Colour/Aspect 10 months later” value is on record as “white powder”, the “Purity (HPLC) 10 months later” value came to 99.74%, the “XRD result 10 months later” value is reported as “Form I” and the “Purity (HPLC) % initial” value is recorded as 99.18%. In series [1], the “XRD result Initial” value is “Form I”; the “stability after ten months” value is “highly stable in terms of chemical purity and of polymorphic form”.

For `C#CCN[C@@H]1CCc2ccccc21.CS(=O)(=O)O` [Mesylate, R-(+)-N-propargyl-1-aminoindan mesylate, reference compound], in series [1], the “Colour/Aspect 10 months later” value is on record as “white powder”, the “Purity (HPLC) 10 months later” value was determined as 99.8%, the “XRD result 10 months later” value is “Form I” and the “Purity (HPLC) % initial” value is 99.58%. Also, the “XRD result Initial” value in series [1] is “Form I”. Further, in series [4], the Tapped density amounted to 0.407 g/mL and the Bulk density is listed as 0.236 g/mL. The Flowability entry in series [4] (listed as rasagiline mesylate, mesylate) is listed as “very, very poor”. For the same compound, the Flowability result in series [4] (mesylate) is “Very, very poor (>1.60)”.

Consider rasagiline besylate [Besylate Form I], for which the “Descriptive term (solubility)” value in series [5] (room temperature) is “Freely soluble”. Moreover, the Solubility in series [5] (setting [7]) is above 800 mg/mL. The compound further showed a Solubility in series [5] (room temperature, stirred until equilibration, HPLC, listed as rasagiline besylate Form I) above 800 mg/mL. For the same compound, in series [5] (room temperature, listed as rasagiline besylate Form I), the “Descriptive term (solubility)” value was “freely soluble”. The “stability under accelerated stability conditions (in words)” value in series [2] (40° C. and 75% RH for one month) was “stable in terms of chemical purity and of polymorphic form”. In series [2] (AL bag), the “XRD 1st Month” value is given as “Form I”. Further, the “Purity (HPLC) 1st Month” value in series [2] (aluminium (AL) bag) is reported as above 99.9%. For the same compound, the “Purity (HPLC) 1st Month” value in series [2] (polyethylene (PE) bag) is on record as above 99.9%. Also, in series [2], the “Purity (HPLC) % initial” value was above 99.9% and the “XRD Initial” value is “Form I”. In addition, in series [3], the “D(v, 0.1)” value is reported as 6.5 μm; the “D(v, 0.5)” value came out at 28.8 μm; the “D(v, 0.9)” value worked out at 50.6 μm. Besides, in series [4], the Tapped density is listed as 0.435 g/mL, the Flowability result is reported as “Excellent (1.00-1.11)”, the Bulk density was determined as 0.427 g/mL and the Hausner ratio was determined as 1.02. Besides, in series [4] (setting [8]), the Flowability entry is listed as “excellent” and the Hausner ratio is 1.00. Also, the Flowability result in series [4] (listed as rasagiline besylate salt Form I) is listed as “excellent”.

Take rasagiline fumarate: in series [1], the “Purity (HPLC) 10 months later” value worked out at 53.64%, the “Purity (HPLC) % initial” value was determined as 59.56% and the “XRD result Initial” value is reported as “Form I”.

Turning to rasagiline maleate, in series [1], the “Colour/Aspect 10 months later” value was “white powder”, the “Purity (HPLC) 10 months later” value worked out at 63.27%, the “Purity (HPLC) % initial” value is 66.54% and the “XRD result Initial” value is given as “Form I”.

rasagiline phosphate: in series [1], the “Colour/Aspect 10 months later” value was “white powder”, the “Purity (HPLC) 10 months later” value is reported as 99.60%, the “Purity (HPLC) % initial” value is listed as 98.45% and the “XRD result Initial” value is “amorphous”.

Regarding rasagiline succinate [Succinate Form I], the “Descriptive term (solubility)” value in series [5] (room temperature) is reported as “Very soluble”. In addition, the Solubility in series [5] (setting [7]) was above 1200 mg/mL. This compound also yielded a Solubility in series [5] (room temperature, stirred until equilibration, HPLC, listed as rasagiline succinate Form I) above 1200 mg/mL. The “Descriptive term (solubility)” value in series [5] (room temperature, listed as rasagiline succinate Form I) is recorded as “very soluble”. In addition, the “stability under accelerated stability conditions (in words)” value in series [2] (setting [6]) is “highly stable in terms of visual aspect, chemical purity and of polymorphic form”. Moreover, in series [2] (AL bag), the “XRD 1st Month” value is “Form I” and the “XRD 2nd Month” value is “Form I”. In series [2] (PE bag), the “XRD 1st Month” value is reported as “Form I” and the “XRD 2nd Month” value is reported as “Form I”. In series [2] (aluminium (AL) bag), the “Purity (HPLC) 1st Month” value is recorded as above 99.9% and the “Purity (HPLC) 2nd Month” value is listed as 99.92%. Moreover, in series [2] (polyethylene (PE) bag), the “Purity (HPLC) 1st Month” value was above 99.9% and the “Purity (HPLC) 2nd Month” value was 99.92%. Besides, in series [2], the “Purity (HPLC) % initial” value was above 99.9% and the “XRD Initial” value was “Form I”. Moreover, in series [1], the “Purity (HPLC) 10 months later” value turned out to be 99.61%, the “XRD result 10 months later” value is “Form I”, the “Purity (HPLC) % initial” value is on record as 99.29% and the “XRD result Initial” value is recorded as “Form I”. Also, the “stability after ten months” value in series [1] was “highly stable in terms of visual aspect, chemical purity and of polymorphic form”. Also, in series [3], the “D(v, 0.1)” value was found to be 23.6 μm; the “D(v, 0.5)” value is listed as 85.1 μm; the “D(v, 0.9)” value is given as 180.4 μm. Also, in series [4], the Tapped density is on record as 0.513 g/mL, the Flowability entry is listed as “Excellent (1.00-1.11)”, the Bulk density was determined as 0.492 g/mL and the Hausner ratio worked out at 1.04. Further, in series [4] (setting [9]), the Flowability result is “excellent” and the Hausner ratio result was “about 1.04”. Further, in series [4] (listed as rasagiline succinate salt Form I), the Flowability result was “excellent”.

For rasagiline tosylate, in series [1], the “Purity (HPLC) 10 months later” value was determined as 75.89%, the “XRD result 10 months later” value was “Form I”, the “Purity (HPLC) % initial” value turned out to be 79.87% and the “XRD result Initial” value is given as “Form I”. Also, the “stability after ten months” value in series [1] is “highly stable in terms of polymorphic form”.

The Solubility is the concentration that dissolves in the medium under given conditions. Lower therefore signals a poorly soluble substance.
